Test results as given in patent US20260232666A1, “COMPOSITIONS AND METHODS FOR INHIBITION OF RAS” (TheRas, Inc., priority 2023, published 2026).

Assays:
pERK in NCI-H358 cells = assay: Cell-based pERK HTRF assay (pERK inhibition in H358 cells); conditions: Homo sapiens, NCI-H358, 0.5 h, 30 min incubation
How it was run: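 NCI-H358 cells were seeded at 4×10^4 cells/well in RPMI/10% FBS, then treated next day for 30 min at 0.25% DMSO (9-point, 3-fold series from 75 μM). Lysates were read by HTRF (d2/Eu cryptate antibody pair, 615 nm emission) after 4–24 h at room temperature to give pERK IC50.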

[1] = target: T1, GDP-loaded KRAS4b (amino acids 1-169) G12C/C118S protein (Homo sapiens, UniProt P01116, C118S/G12C); assay: Covalent cysteine 12 modification by MALDI-TOF MS, GDP-loaded KRAS G12C; format: binding; conditions: 15 minutes reaction time point
T1 construct: KRAS4b (amino acids 1-169) G12C/C118S protein; made in house
How it was run: (§1)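 1 μM protein + cpd (1:2.5), HEPES 20 mM/NaCl 150 mM/MgCl2 1 mM pH 7.3, RT, dark, 15 min. Linear MALDI-TOF, sinapinic acid matrix. % mod = modified/(modified + unmodified) peak height.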

[2] = target: T2, GppNHp-loaded KRAS4b (amino acids 1-169) G12C/C118S protein (Homo sapiens, UniProt P01116, C118S/G12C); assay: Covalent cysteine 12 modification by MALDI-TOF MS, GppNHp-loaded KRAS G12C; format: binding; conditions: 15 minutes reaction time point
T2 construct: KRAS4b (amino acids 1-169) G12C/C118S protein; made in house
How it was run: as §1

SMILES	IC50 (pERK in NCI-H358 cells) [nM]	GDP-KRAS G12C percent of modification [1]	GppNHp-KRAS G12C percent of modification [2]
C=CC(=O)N1CC[C@@H](N(C)c2nc(OC[C@@]34CCCN3C[C@H](F)C4)nc3c(F)c(-c4ccc(F)c5oc(N)c(C#N)c45)c(C(F)(F)F)cc23)[C@H]1C [Compound 90]	< 100	B (50≤percent of modification <70%)	B (50≤percent of modification <70%)
C=CC(=O)N1CC2CC(C1)N2c1nc(OC[C@@]23CCCN2C[C@H](F)C3)nc2c(F)c(-c3ccc(F)c4sc(N)c(C#N)c34)c(C(F)(F)F)cc12 [Compound 46]	100 to 1000	C (10%≤percent of modification <50%)	D (percent of modification <10%)
C=CC(=O)N1CC[C@@H](N(C)c2nc(OC[C@@]34CCCN3C[C@H](F)C4)nc3c(F)c(-c4nc(N)cc(C)c4C(F)(F)F)c(Cl)cc23)[C@H]1C [Compound 78, 1-[(2R,3R)-3-[[7-[6-amino-4-methyl-3-(trifluoromethyl)-2-pyridyl]-6-chloro-8-fluoro-2-[[(2R,8S)-2-fluoro-1,2,3,5,6,7-hexahydropyrrolizin-8-yl]methoxy]quinazolin-4-yl]-methyl-amino]-2-methyl-pyrrolidin-1-yl]prop-2-en-1-one]	< 100	A (percent of modification ≥70%)	A (percent of modification ≥70%)

Second part, the molecule after the results:

IC50 (pERK in NCI-H358 cells) [nM]	GDP-KRAS G12C percent of modification [1]	GppNHp-KRAS G12C percent of modification [2]	SMILES
100 to 1000	A (percent of modification ≥70%)	D (percent of modification <10%)	C=CC(=O)N1CC[C@@H](N(CC)c2nc(OC[C@@]34CCCN3C[C@H](F)C4)nc3cc(-c4ccc(F)c5sc(N)c(C#N)c45)c(C#N)cc23)[C@@H]1CC [Compound 40]
< 100	A (percent of modification ≥70%)	A (percent of modification ≥70%)	C=CC(=O)N1CC[C@@H](N(CC)c2nc(OC[C@@H]3CCCN3C)nc3c(F)c(-c4ccc(F)c5sc(N)c(C#N)c45)c(Cl)cc23)[C@H]1C [Compound 58]
